# Values joined by “and” are separate entries in the source; they are usually repeats but may differ in a detail not shown here. Equal entries are not always repeated. Structures can show the parent of a compound that is named as a salt.
# What was measured:
# C57BL/6 mice [1] = experiment: Acute behaviour and WAT NE content after single IP injection; type: in vivo, mouse
# Method: NE levels were determined with an NE ELISA kit (Labor Diagnostika Nord GmbH). Tissues were homogenized and sonicated in homogenization buffer (1 N HCl, 1 mM EDTA, 4 mM Sodium metabisulfite), and cellular debris were pelleted by centrifugation at 20,000 g for 10 min at 4° C.). All tissue samples were normalized to total tissue protein concentration.
# (§1) After 3 weeks of HFD exposure and treatment, mice were either acclimated to tracking cages for 1 week before starting the 72 h locomotion measurements using the LabMaster tracking system (TSE Systems; Bad Homburg); or filmed for 20-30 min, with a ZEISS optics camera, 1 h post injection inside their normal housing cage, for assessment of total distance traveled. Footage-records were filtered using the video editor Avidemux (Avidemux 2.7.1) and 10 or 15 min distance computations were quantified using the TrackMate tracking plugin from Fiji (Fiji; Wisconsin-Madinson).
# [2] = system: SCG sympathetic neurons from C57BL/6 mice; experiment: Whole cell patch-clamp electrophysiology of sympathetic neurons
# C57BL/6 mice [3] = experiment: Diet induced obesity, 10 weeks HFD with chronic treatment; type: in vivo, mouse
# [4] = system: superior cervical ganglia sympathetic neurons from GCaMP3+ mice; experiment: Intracellular calcium imaging of ACh-stimulated sympathetic neurons; type: cell-based, mouse; settings: 15 μM drug for 24 h; 10 μM ACh for 40 s
# Method: For Ca^2+ experiments, sympathetic neurons obtained from GCaMP3^+ mice. […] At 7 DIV, coverslips with sympathetic neurons from GCaMP3^+ mice were mounted on an inverted microscope with epifluorescent optics (Axiovert 135TV, Zeiss) equipped with a xenon lamp (located at a Lambda DG-4 (Sutter Instrument) and band-pass filter of 450-490 nm wavelengths. Ca^2+ measurements were performed at 37° C., as reported in Jacob et al., 2014(33) Throughout the experiments the Ach was applied focally through a drug filled micropipette placed under visual guidance over a single neuronal cell. Drug release was performed by focal pressure (10 psi for 40 s) through a Toohey Spritzer pressure System Ile (Toohey Company). […] Images were obtained every 250 ms by exciting the preparations at 450-490 nm and the emission wavelength was set to 510 nm. Neurons were imaged with a cooled CCD camera (Photometrics CoolSNAP fx), processed and analysed using the software MetaFluor (Universal laging, West Chester, Pa.). Ca^2+ levels were recorded at the cell body of neurons (manually defined over the cell profile) in the field of view and variations were estimated as changes of the fluorescence signal over the baseline (ΔF/F0=[(Fpost−Frest)/Frest]).
# [5] = system: LSL-DTR (Control) and TH-cre; LSL-DTR (Symp) mice; experiment: High fat diet challenge in Control and sympathectomized (Symp) mice, 6 weeks; type: in vivo, mouse; settings: for BW gain: 6 weeks HFD, 0.12 mol/kg daily IP; for Locomotor activity, total distance traveled: 10-min video-tracking, 1 h post-injection; for Plasma Glycerol levels: 2 h post-injection; for Food intake: HFD
# Method: For detailed characterization refer to Pereira et al. 2017(52). Briefly, TH-cre; LSL-DTR mice were used for this experiment and LSL-DTR mice were used as controls. PEGylated Diphtheria Toxin (PEGyDT) was administered once a day for 8 consecutive days (25 ng/g of BW, IP injections). All following experiments were performed at least 24 h post the last injection.
# (§2) Blood glucose was measured using a glucometer (Accu-Check, Roche). Analysis of Insulin, Triglycerides, Glycerol and FFA levels in plasma as performed using Mouse Ultrasensitive Insulin ELISA (Alpco), Triglyceride Quantification Kit (Abcam), Free Glycerol Reagent (Sigma) and Glycerol Standard Solution (Sigma), and Free Fatty Acid Quantification Kit (MAK044, Sigma), respectively according to manufacturer's instructions.
# […]. Tissues were homogenized and sonicated in homogenization buffer (1 N HCl, 1 mM EDTA, 4 mM Sodium metabisulfite), and cellular debris were pelleted by centrifugation at 20,000 g for 10 min at 4° C.). All tissue samples were normalized to total tissue protein concentration.
# as §1
# C57BL/6 mice [6] = experiment: Thermoregulation studies (thermography, rectal probe) during DIO; type: in vivo, mouse; settings: 2 h post-injection
# Method: All measurements were done in ad libitum fed mice 2 h post-injections. Rectal temperature was measured with an electronic thermometer (Precision). BAT and Tail thermographic pictures were taken using a Compact-Infrared-Thermal-Imaging-Camera (FLIR; West Mailing) and FLIR-Tools-Software (FLIR; West Mailing) to quantify local temperatures.
# C57BL/6 mice [7] = experiment: Faecal output and plasma triglycerides during HFD feeding; type: in vivo, mouse
# Method: as §2
# 24 h faecal output was collected and weighed. The faeces were washed with 1×PBS and total triglyceride content was extracted by homogenization and boiling, for 2 cycles of 5 min, in 5% NP-40. Triglyceride content was measured using Triglyceride Quantification Kit (Abcam), according to manufacturer's instructions, and normalized to the weight of total faecal output.
# Slc6a2 = molecular target: T1, Slc6a2 (Mus musculus, UniProt O55192); experiment: NE uptake by SAMs in SCG explant cultures, SLC6A2 blocker; type: cell-based; settings: 100 nM Nisoxetine hydrochloride
# T1 construct: CD45.2+F4/80+ cells isolated from the SCG of either B6 or Slc6a2−/− mice; from tissue; sorted CD45+F4/80+ sympathetic neuron-associated macrophages (sympathetic neurons are also present)
# T1 sequence (O55192 whole entry): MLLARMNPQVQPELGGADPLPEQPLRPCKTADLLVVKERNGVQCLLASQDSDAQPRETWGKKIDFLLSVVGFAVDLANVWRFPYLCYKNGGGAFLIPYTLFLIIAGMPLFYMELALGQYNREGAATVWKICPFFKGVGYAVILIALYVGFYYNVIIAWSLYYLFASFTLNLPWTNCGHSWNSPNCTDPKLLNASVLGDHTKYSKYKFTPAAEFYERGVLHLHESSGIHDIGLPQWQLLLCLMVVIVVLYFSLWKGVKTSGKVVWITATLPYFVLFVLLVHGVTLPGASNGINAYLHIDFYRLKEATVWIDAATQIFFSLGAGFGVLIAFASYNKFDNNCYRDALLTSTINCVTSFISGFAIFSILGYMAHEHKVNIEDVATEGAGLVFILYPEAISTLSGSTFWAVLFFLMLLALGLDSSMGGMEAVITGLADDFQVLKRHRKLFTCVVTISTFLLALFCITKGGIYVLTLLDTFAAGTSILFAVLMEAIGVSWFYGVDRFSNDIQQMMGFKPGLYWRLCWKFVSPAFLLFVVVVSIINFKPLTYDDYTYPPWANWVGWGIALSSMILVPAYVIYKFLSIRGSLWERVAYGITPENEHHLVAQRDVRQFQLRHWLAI
# MAOa = molecular target: T2, MAOa (Mus musculus, UniProt Q64133); experiment: NE content of SAMs and medium in SCG explant cultures, MAOA blocker; type: cell-based; settings: ACh-activated SCG explants; 100 μM Clorgyline, 2 hours
# T2 construct: CD45.2+F4/80+ cells isolated from the SCG of either B6 or Slc6a2−/− mice; from tissue; sorted CD45+F4/80+ SAMs (neuronal MAOa may also contribute to NE in the medium)
# T2 sequence (Q64133 1-526): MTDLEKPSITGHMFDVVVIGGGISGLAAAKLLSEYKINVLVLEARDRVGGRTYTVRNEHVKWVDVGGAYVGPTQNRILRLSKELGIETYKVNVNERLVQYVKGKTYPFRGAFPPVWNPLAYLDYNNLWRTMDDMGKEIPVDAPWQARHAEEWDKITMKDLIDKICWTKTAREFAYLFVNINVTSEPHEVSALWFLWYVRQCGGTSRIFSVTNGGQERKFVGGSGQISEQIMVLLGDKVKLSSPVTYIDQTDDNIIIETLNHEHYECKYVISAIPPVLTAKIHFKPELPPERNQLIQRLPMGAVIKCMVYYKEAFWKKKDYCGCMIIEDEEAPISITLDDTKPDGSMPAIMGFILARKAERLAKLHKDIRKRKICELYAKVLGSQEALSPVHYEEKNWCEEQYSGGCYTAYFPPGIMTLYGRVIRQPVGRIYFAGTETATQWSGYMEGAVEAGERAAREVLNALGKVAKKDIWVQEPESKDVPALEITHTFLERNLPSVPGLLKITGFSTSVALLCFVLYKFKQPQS
# Method: SCG were removed from 4-6 weeks old mice under a stereomicroscope and placed in Dulbecco's Modified Eagle's medium (DMEM, Invitrogen, Carlsbad, Calif., U.S.A.). Ganglia were cleaned from the surrounding tissue capsule and transferred into 8-well Tissue Culture Chambers (Sarstedt, Nümbrecht, Germany) that were previously coated with poly-D-lysine (Sigma/Aldrich, Steinheim, Germany) in accordance to the manufacturers instructions. Ganglia were then covered with 5 μl of Matrigel (BD Bioscience, San Jose, Calif., U.S.A.) and incubated for 7 min at 37° C. DMEM without phenol red (Invitrogen) supplemented with 10% fetal bovine serum (Invitrogen), 2 mM L-Glutamine (Biowest, Nuaillé, France) and nerve growth factor (Sigma/Aldrich) were subsequently added. 12 SCG explants cultures were prepared per condition. SCG ganglia were cultured for minimum 24 hours prior to further manipulation. […]
# Depolarization of sympathetic neurons in TH-Cre/LSLChR2-YFP explant cultures were performed on a Yokogawa CSUX Spinning Disk confocal using the 488 nm laser line and pointing at the region of interest (ROI) for 200 μs. […] NE in the SCG explant culture medium and sorted CD45, F4/80-double positive cells was determined with NE ELISA kit (Labor Diagnostika Nord GmbH, Nordhorn, Germany, cat # BA E-5200). […]
# [8] = fed-state, 2 h post-injection without access to food
smiles,measurement,setting,value
"CC(N)Cc1ccccc1 (centres unmarked) [AMPH, Amphetamine]","Locomotion, total distance traveled","C57BL/6 mice [1]; 15-min video-tracking, 1 h post-injection",70.45±7.54 m
same,NE content in iWAT,C57BL/6 mice [1]; 2 h post-injection,9.69 ± 1.49 ng/mg
same,NE content in gWAT,"C57BL/6 mice [1]; 2 h post-injection, per total tissue protein",6.63 ± 0.58 ng/mg
same,Food intake,"C57BL/6 mice [1]; 24 h post-injection, 0.12 mol/kg IP",2.57 ± 0.15 g
same,Resting membrane potential,[2],−35.70±1.02 mV
same,Changes in resting membrane potential,"[2]; AMPH vs Vehicle, FIGS. 5A, B",no significant changes
same,Maximum firing frequency,[2]; current-clamp mode,37.60±1.07 Hz and 41.00±1.43 Hz
same,Locomotor activity,"C57BL/6 mice [3]; (a.u.), fourth week of HFD",53.72±5.27 counts/day
same,NE levels in the liver,"C57BL/6 mice [3]; HFD fed, per total protein",1.327 ± 0.262 ng/mg
same,NE levels in the muscle,"C57BL/6 mice [3]; HFD fed, per total protein",0.493 ± 0.030 ng/mg
same,iWAT adipocyte size,C57BL/6 mice [3]; after 10 weeks of HFD,1152.0±58.9 μm^2
same,"iWAT weight, % of total BW",C57BL/6 mice [3]; after 10 weeks of HFD,0.92±0.13%
same,NE content in iWAT,"C57BL/6 mice [3]; after 10 weeks of HFD and treatment, per total protein",1.166 ± 0.263 ng/mg
same,BW gain,"C57BL/6 mice [3]; after 10 weeks of HFD, 0.12 mol/kg daily IP",20.49±2.10%
same,Daily food intake,C57BL/6 mice [3]; during HFD and treatment,2.17 ± 0.09 g/day
same,Circulating plasma insulin levels,C57BL/6 mice [3]; [8],0.582 ± 0.020 ng/mL
same,Plasma Free Fatty Acids,C57BL/6 mice [3]; [8],0.766 ± 0.043 µmol/mL
same,Plasma Glycerol,C57BL/6 mice [3]; [8],11.771 ± 1.249 µmol/mL
same,TGs content in muscle,C57BL/6 mice [3]; per total protein,11.54 ± 0.17 µmol/mg
same,TGs content in the liver,C57BL/6 mice [3]; per total protein,16.23 ± 1.95 µmol/mg
same,"ACh-induced intracellular [Ca2+] increase, ΔF/F0",[4],1.71±0.05
same,NE content in inguinal WAT,[5]; Control mice,2.58±0.28 ng/mg of total tissue protein
same,BW gain,[5]; Control mice,12.67±1.79%
same,"Locomotor activity, total distance traveled",[5]; Control mice,21.88±1.09 m
same,Plasma Glycerol levels,[5]; Control mice,89.70 ± 10.20 µg/mL
same,Food intake,[5]; Control mice,2.08 ± 0.25 g/day
same,NE content in inguinal WAT,[5]; Symp mice,1.51 ± 0.20 ng/mg
same,BW gain,[5]; Symp mice,39.19±4.54%
same,"Locomotor activity, total distance traveled",[5]; Symp mice,24.30±2.88 m
same,Plasma Glycerol levels,[5]; Symp mice,59.07 ± 7.83 µg/mL
same,Food intake,[5]; Symp mice,2.00 ± 0.12 g/day
same,Core body temperature (rectal probe),C57BL/6 mice [6]; fourth week of HFD,37.94±0.10 °C
same,Tail temperature at the tail base (thermography),C57BL/6 mice [6]; fourth week of HFD,30.07±0.54 °C
same,BAT temperature (thermography),"C57BL/6 mice [6]; HFD fed mice, fourth week",38.25±0.25 °C
same,Total 24 h faecal output,C57BL/6 mice [7]; HFD feeding,0.48 ± 0.03 g
same,Faecal triglycerides (TGs) levels,"C57BL/6 mice [7]; HFD feeding, per mg of faeces",1.89 ± 0.15 nmol/mg
same,Plasma TGs levels,C57BL/6 mice [7]; [8],3.48 ± 0.01 µmol/mL
"CNCCC(Oc1ccccc1OC)c1ccccc1 (centres unmarked) [Nisoxetine, Nisoxetine hydrochloride]",NE accumulation in SAMs,"Slc6a2; ACh-activated SCG explants, 2 hours",prevented NE accumulation in SAMs
same,Uptake of NE by SAMs (NE content in CD45+F4/80+ cells),Slc6a2; optogenetic stimulation of SCG explants,prevented
"C#CCN(C)CCCOc1ccc(Cl)cc1Cl [clorgyline, Clorgyline]",Intracellular NE levels in SAMs,MAOa,nearly double intracellular NE levels
same,NE levels in medium,MAOa,increased NE levels in medium

# From US20200323797A1, “Treatment of Obesity-related Conditions” (INSTITUTO DE MEDICINA MOLECULAR, priority 2017, published 2020)
